Literature values in patent US20110071071A1, “PSMB10: A DIAGNOSIS MARKER AND THERAPEUTIC TARGET OF CHRONIC REJECTION” (priority 2008, published 2011).

Tests used:
[1] = biological target: T1, chymotrypsin-like activity of the purified 20S proteasome (Homo sapiens, UniProt P28074); conditions: in vitro
T1 sequence (P28074 60-263): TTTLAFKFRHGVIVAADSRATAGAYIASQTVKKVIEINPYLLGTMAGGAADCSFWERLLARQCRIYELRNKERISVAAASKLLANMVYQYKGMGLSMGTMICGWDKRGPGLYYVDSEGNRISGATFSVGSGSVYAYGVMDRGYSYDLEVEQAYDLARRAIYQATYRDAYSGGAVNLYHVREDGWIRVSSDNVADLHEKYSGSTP

20S proteasome = 20S proteasome (Homo sapiens, UniProt P28072+P28074+Q99436); conditions: all three catalytic sites
[2] = system: murine neuroblastoma cell line Neuro-2a; conditions: Neuro-2a cells

O=C(OC1Cc2c(O)cc(O)cc2OC1c1cc(O)c(O)c(O)c1)c1cc(O)c(O)c(O)c1 (single isomer, unassigned; (-)) [(−)-EGCG, (−)-epigallocatechin 3-gallate]
inhibition of chymotrypsin-like (CT-L) activity of the 20S proteasome [1]: inhibiting the chymotrypsin-like activity

C[C@@]12OC(=O)[C@]1([C@@H](O)[C@@H]1C=CCCC1)NC(=O)[C@@H]2CCCl [NPI-0052, salinosporamide A]
20S proteasome inhibition (20S proteasome): highly potent and selective 20S proteasome inhibitor with irreversible activity against all three catalytic sites

CC(=O)N[C@@H](CSC(=O)[C@]1([C@@H](O)C(C)C)NC(=O)[C@H](C)[C@@H]1O)C(=O)O [lactacystin]
neurite outgrowth [2]: induce neurite outgrowth
